Data taken from PubChem BioAssay AID1919003 (Molecular Pharmacology Branch, DTP, NCI, 2023).

Tested on: 786-0 complex spheroids with HUVEC/MSC, growth % test/control
Experiment: Anticancer human tumor 786-0 cell line growth inhibition [AhR];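 further: compound exposure lasted seven days before the read-out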
Conditions: for viability, T/C: stronger effect = lower value
Procedure, shortened: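 Agents were dosed in half-log steps down from roughly clinical Cmax, or from 10 microM where Cmax was unknown, alone and with AhR antagonists. Read-out: percent test/control growth of tumor spheroids containing HUVEC and MSC stromal cells.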

[1] = curve of first compound, second compound 0.1 µM
[2] = curve of first compound, second compound 0.316 µM
[3] = curve of first compound, second compound 1 µM
[4] = curve of first compound, second compound 3.16 µM
[5] = curve of first compound, second compound 10 µM
[6] = second compound 0.1 µM, first compound 0.0316 µM
[7] = second compound 0.1 µM, first compound 0.1 µM
[8] = second compound 0.1 µM, first compound 0.316 µM
[9] = second compound 0.1 µM, first compound 1 µM
[10] = second compound 0.1 µM, first compound 3.16 µM
[11] = second compound 0.1 µM, first compound 10 µM
[12] = second compound 0.316 µM, first compound 0.0316 µM
[13] = second compound 0.316 µM, first compound 0.1 µM
[14] = second compound 0.316 µM, first compound 0.316 µM
[15] = second compound 0.316 µM, first compound 1 µM
[16] = second compound 0.316 µM, first compound 3.16 µM
[17] = second compound 0.316 µM, first compound 10 µM
[18] = second compound 1 µM, first compound 0.0316 µM
[19] = second compound 1 µM, first compound 0.1 µM
[20] = second compound 1 µM, first compound 0.316 µM
[21] = second compound 1 µM, first compound 1 µM
[22] = second compound 1 µM, first compound 3.16 µM
[23] = second compound 1 µM, first compound 10 µM
[24] = second compound 3.16 µM, first compound 0.0316 µM
[25] = second compound 3.16 µM, first compound 0.1 µM
[26] = second compound 3.16 µM, first compound 0.316 µM
[27] = second compound 3.16 µM, first compound 1 µM
[28] = second compound 3.16 µM, first compound 3.16 µM
[29] = second compound 3.16 µM, first compound 10 µM
[30] = second compound 10 µM, first compound 0.0316 µM
[31] = second compound 10 µM, first compound 0.1 µM
[32] = second compound 10 µM, first compound 0.316 µM
[33] = second compound 10 µM, first compound 1 µM
[34] = second compound 10 µM, first compound 3.16 µM
[35] = second compound 10 µM, first compound 10 µM

## CCN(c1cc(-c2ccc(CN3CCOCC3)cc2)cc(C(=O)NCc2c(C)cc(C)[nH]c2=O)c1C)C1CCOCC1 + Cc1ccccc1N=Nc1ccc(NC(=O)c2ccnn2C)c(C)c1
[1]
  IC50: > 3 µM
[2]
  IC50: > 3 µM
[3]
  IC50: > 3 µM
[4]
  IC50: > 3 µM
[5]
  IC50: > 3 µM
Second compound 0.1 µM, first compound 0.00949 µM
  viability, T/C: 106%
Second compound 0.1 µM, first compound 0.03 µM
  viability, T/C: 104%
Second compound 0.1 µM, first compound 0.0949 µM
  viability, T/C: 98.3%
Second compound 0.1 µM, first compound 0.3 µM
  viability, T/C: 107%
Second compound 0.1 µM, first compound 0.949 µM
  viability, T/C: 101%
Second compound 0.1 µM, first compound 3 µM
  viability, T/C: 110%
Second compound 0.316 µM, first compound 0.00949 µM
  viability, T/C: 104%
Second compound 0.316 µM, first compound 0.03 µM
  viability, T/C: 106%
Second compound 0.316 µM, first compound 0.0949 µM
  viability, T/C: 116%
Second compound 0.316 µM, first compound 0.3 µM
  viability, T/C: 111%
Second compound 0.316 µM, first compound 0.949 µM
  viability, T/C: 119%
Second compound 0.316 µM, first compound 3 µM
  viability, T/C: 118%
Second compound 1 µM, first compound 0.00949 µM
  viability, T/C: 112%
Second compound 1 µM, first compound 0.03 µM
  viability, T/C: 106%
Second compound 1 µM, first compound 0.0949 µM
  viability, T/C: 106%
Second compound 1 µM, first compound 0.3 µM
  viability, T/C: 97.4%
Second compound 1 µM, first compound 0.949 µM
  viability, T/C: 102%
Second compound 1 µM, first compound 3 µM
  viability, T/C: 98.6%
Second compound 3.16 µM, first compound 0.00949 µM
  viability, T/C: 109%
Second compound 3.16 µM, first compound 0.03 µM
  viability, T/C: 114%
Second compound 3.16 µM, first compound 0.0949 µM
  viability, T/C: 102%
Second compound 3.16 µM, first compound 0.3 µM
  viability, T/C: 93.3%
Second compound 3.16 µM, first compound 0.949 µM
  viability, T/C: 116%
Second compound 3.16 µM, first compound 3 µM
  viability, T/C: 94.2%
Second compound 10 µM, first compound 0.00949 µM
  viability, T/C: 106%
Second compound 10 µM, first compound 0.03 µM
  viability, T/C: 102%
Second compound 10 µM, first compound 0.0949 µM
  viability, T/C: 89.2%
Second compound 10 µM, first compound 0.3 µM
  viability, T/C: 100%
Second compound 10 µM, first compound 0.949 µM
  viability, T/C: 98.3%
Second compound 10 µM, first compound 3 µM
  viability, T/C: 103%

## COc1cc(C2c3cc4c(cc3C(OC3OC5COC(C)OC5C(O)C3O)C3COC(=O)C23)OCO4)cc(OC)c1O (configuration not stated) + Cc1cncc(-c2nc(NCCc3c[nH]c4ccccc34)c3ncn(C(C)C)c3n2)c1
[1]
  IC50: 1.15 µM
[2]
  IC50: 1.29 µM
[3]
  IC50: 1.32 µM
[4]
  IC50: 0.444 µM
[5]
  IC50: < 0.0316 µM
[6]
  viability, T/C: 114%
[7]
  viability, T/C: 127%
[8]
  viability, T/C: 87%
[9]
  viability, T/C: 49.9%
[10]
  viability, T/C: 35.5%
[11]
  viability, T/C: 9.86%
[12]
  viability, T/C: 128%
[13]
  viability, T/C: 121%
[14]
  viability, T/C: 86.8%
[15]
  viability, T/C: 52.9%
[16]
  viability, T/C: 33.4%
[17]
  viability, T/C: 7.71%
[18]
  viability, T/C: 107%
[19]
  viability, T/C: 117%
[20]
  viability, T/C: 85.2%
[21]
  viability, T/C: 53.3%
[22]
  viability, T/C: 32.3%
[23]
  viability, T/C: 4.59%
[24]
  viability, T/C: 81.3%
[25]
  viability, T/C: 79.1%
[26]
  viability, T/C: 56.2%
[27]
  viability, T/C: 30.5%
[28]
  viability, T/C: 15.8%
[29]
  viability, T/C: 2.3%
[30]
  viability, T/C: 6.55%
[31]
  viability, T/C: 4.82%
[32]
  viability, T/C: 1.24%
[33]
  viability, T/C: 0.35%
[34]
  viability, T/C: 0.49%
[35]
  viability, T/C: 0.43%

## CC(CO)NC(=O)c1cc(-c2ccc(Cl)cc2)nn(-c2cnn(C)c2)c1=O (configuration not stated)
Compound 0.1 µM
  viability, T/C: 100% [middle of 20 runs]
Compound alone, run of 08/08/2022
  IC50: > 10 µM

## CC1COCCN1c1cc(-c2ccnn2C)c2ccnc(-c3ccn[nH]3)c2n1 (configuration not stated) + Cc1cncc(-c2nc(NCCc3c[nH]c4ccccc34)c3ncn(C(C)C)c3n2)c1
[1]
  IC50: 0.192 µM
[2]
  IC50: 0.192 µM
[3]
  IC50: 0.15 µM
[4]
  IC50: 0.0498 µM
[5]
  IC50: < 0.00316 µM
Second compound 0.1 µM, first compound 0.00316 µM
  viability, T/C: 106%
Second compound 0.1 µM, first compound 0.01 µM
  viability, T/C: 114%
[6]
  viability, T/C: 108%
[7]
  viability, T/C: 89.9%
[8]
  viability, T/C: 19.7%
[9]
  viability, T/C: 6.85%
Second compound 0.316 µM, first compound 0.00316 µM
  viability, T/C: 119%
Second compound 0.316 µM, first compound 0.01 µM
  viability, T/C: 118%
[12]
  viability, T/C: 116%
[13]
  viability, T/C: 88.4%
[14]
  viability, T/C: 20.5%
[15]
  viability, T/C: 7.37%
Second compound 1 µM, first compound 0.00316 µM
  viability, T/C: 106%
Second compound 1 µM, first compound 0.01 µM
  viability, T/C: 104%
[18]
  viability, T/C: 100%
[19]
  viability, T/C: 69%
[20]
  viability, T/C: 15%
[21]
  viability, T/C: 5.51%
Second compound 3.16 µM, first compound 0.00316 µM
  viability, T/C: 74.9%
Second compound 3.16 µM, first compound 0.01 µM
  viability, T/C: 74.9%
[24]
  viability, T/C: 65%
[25]
  viability, T/C: 26.9%
[26]
  viability, T/C: 4.19%
[27]
  viability, T/C: 2.86%
Second compound 10 µM, first compound 0.00316 µM
  viability, T/C: 8.14%
Second compound 10 µM, first compound 0.01 µM
  viability, T/C: 10.1%
[30]
  viability, T/C: 7.76%
[31]
  viability, T/C: 1.45%
[32]
  viability, T/C: 0.29%
[33]
  viability, T/C: 0.46%

## O=C(C=Cc1cccc(S(=O)(=O)Nc2ccccc2)c1)NO + Cc1cncc(-c2nc(NCCc3c[nH]c4ccccc34)c3ncn(C(C)C)c3n2)c1
[1]
  IC50: 7.06 µM
[2]
  IC50: 7.68 µM
[3]
  IC50: 6.53 µM
[4]
  IC50: 1.6 µM
[5]
  IC50: < 0.0316 µM
[6]
  viability, T/C: 120%
[7]
  viability, T/C: 113%
[8]
  viability, T/C: 112%
[9]
  viability, T/C: 119%
[10]
  viability, T/C: 103%
[11]
  viability, T/C: 26.5%
[12]
  viability, T/C: 113%
[13]
  viability, T/C: 118%
[14]
  viability, T/C: 113%
[15]
  viability, T/C: 113%
[16]
  viability, T/C: 112%
[17]
  viability, T/C: 31.4%
[18]
  viability, T/C: 113%
[19]
  viability, T/C: 111%
[20]
  viability, T/C: 106%
[21]
  viability, T/C: 106%
[22]
  viability, T/C: 96.7%
[23]
  viability, T/C: 22.4%
[24]
  viability, T/C: 69.2%
[25]
  viability, T/C: 68.2%
[26]
  viability, T/C: 59.4%
[27]
  viability, T/C: 53.7%
[28]
  viability, T/C: 45%
[29]
  viability, T/C: 11.8%
[30]
  viability, T/C: 13.8%
[31]
  viability, T/C: 8.02%
[32]
  viability, T/C: 5.17%
[33]
  viability, T/C: 0.6%
[34]
  viability, T/C: 2.92%
[35]
  viability, T/C: 1.45%
